Results on one compound are retold here after US9376433B2, “(AZA-)isoquinolinone derivatives” (MERCK PATENT GMBH, priority 2012, dated 2016).

For one experiment, the system named is tankyrase 1/2. Description: Cellular inhibition of tankyrase: increase of Axin2 level in DLD1 cells (Luminex). It is filed as cell-based. Conditions: DLD1 colon carcinoma cells, 24 hours, read-out: EC50 tankyrase 1/2 (cell assay). As for the experimental part:
Measurement of Cellular Inhibition of Tankyrase
Since Tankyrases have been described to modulate cellular level of Axin2 (Huang et al., 2009; Nature) the increase of Axin2 level is used as read-out for determination of cellular inhibition of Tankyrases in a Luminex based assay.
Cells of the colon carcinoma cell line DLD1 are plated in 96 well plates with 1.5×10^4 cells per well. Next day, cells are treated with a serial dilution of test compound in seven steps as triplicates with a final DMSO concentration of 0.3%. After 24 hours, cells are lysed in lysis buffer (20 mM Tris/HCl pH 8.0, 150 mM NaCl, 1% NP40, 10% Glycerol) and lysates are cleared by centrifugation through a 96 well filter plate (0.65 μm). Axin2 protein is isolated from cell lysates by incubation with a monoclonal anti-Axin2 antibody (R&D Systems #MAB6078) that is bound to fluorescent carboxybeads. Then, bound Axin2 is specifically detected with a polyclonal anti-Axin2 antibody (Cell Signaling #2151) and an appropriate PE-fluorescent secondary antibody. The amount of isolated Axin2 protein is determined in a Luminex^200 machine (Luminex Corporation) according to the manufacturer's instruction by counting 100 events per well. Inhibition of Tankyrase by test compounds results in higher levels of Axin2 which directly correlates with an increase of detectable fluorescence. As controls cells are treated with solvent alone (neutral control) and with a Tankyrase reference inhibitor IWR-2 (3E-06 M) which refers as control for maximum increase of Axin2. For analysis, the obtained data are normalized against the untreated solvent control and fitted for determination of the EC50 values using the Assay Explorer software (Accelrys).

In the next experiment the target is T1, Tankyrase-2 (Homo sapiens, UniProt Q9H2K2).
T1 construct: GST-tagged Tankyrase-2 (873-1166 aa)
Description: Tankyrase 2 autoparsylation assay (HTRF enzyme assay). Format: biochemical. The following applies: GST-tagged Tankyrase-2 (873-1166 aa). As for the experimental part:
Biochemical activity testing of Tankyrase 1 and 2: Autoparsylation assay
The autoparsylation assay is run in two steps: the enzymatic reaction in which GST-tagged Tankyrase-1, resp Tankyrase-2 transferred biotinylated ADP-ribose to itself from biotinylated NAD as co-substrate and the detection reaction where a time resolved FRET between cryptate labelled anti-GST bound to the GST tag of the enzyme and Xlent® labelled-streptavidin bound the biotin-parsylation residue is analysed. The autoparsylation activity was detectable directly via the increase in HTRF signal.
The autoparsylation assay is performed as 384-well HTRF® (Cisbio, Codolet, France) assay format in Greiner low volume nb 384-well microtiter plates and is used for high throughput screen. 250 nM GST-tagged Tankyrase-1 (1023-1327 aa), respectively about 250 nM GST-tagged Tankyrase-2 (873-1166 aa) and 5 μM bio-NAD (Biolog, Life science Inst., Bremen, Germany) as co-substrate are incubated in a total volume of 5 μl (50 mM HEPES, 4 mM Mg-chloride, 0.05% Pluronic F-68, 1.4 mM DTT, 0.5% DMSO, pH 7.7) in the absence or presence of the test compound (10 dilution concentrations) for 90 min at 30° C. The reaction is stopped by the addition of 1 μl 50 mM EDTA solution. 2 μl of the detection solution (1.6 μM SA-Xlent® (Cisbio, Codolet, France), 7.4 nM Anti-GST-K® (Eu-labelled anti-GST, Cisbio, Codolet, France) in 50 mM HEPES, 800 mM KF, 0.1% BSA, 20 mM EDTA, 0.1% CHAPS, pH 7.0) are added. After 1 h incubation at room temperature the HTRF is measured with an Envision multimode reader (Perkin Elmer LAS Germany GmbH) at excitation wavelength 340 nm (laser mode) and emission wavelengths 615 nm and 665 nm. The ratio of the emission signals is determined. The full value used is the inhibitor-free reaction. The pharmacological zero value used is XAV-939 (Tocris) in a final concentration of 5 μM. The inhibitory values (IC50) are determined using either the program Symyx Assay Explorer® or Condosseo® from GeneData.
On the technique in general: In TR-FRET formats the signal depends on donor and acceptor labels being close together.

The target in another experiment is T2, TNKS1 (Homo sapiens, UniProt O95271).
T2 construct: GST-tagged Tnks-1 (1023-1327 aa, prepared in-house); made in house
Briefly: TNKS1 activity ELISA (autoparsylation assay). Format: biochemical. The following applies: GST-tagged Tnks-1 (1023-1327 aa), luminescence. As for the experimental part:
Description of the TNKS1 and TNKS2 ELISA Assay
Biochemical activity testing of TNKS 1 and 2: activity ELISA (Autoparsylation assay)
For analysis of autoparsylation activity of TNKS 1 and 2 an activity ELISA iss performed: In the first step GST tagged TNKS is captured on a Glutathione coated plate. Then the activity assay with biotinylated NAD is performed in the absence/presence of the compounds. During the enzymatic reaction GST tagged TNKS transfers biotinylated ADP-ribose to itself from biotinylated NAD as co-substrate. For the detection streptavidin-HRP conjugate is added that binds to the biotinylated TNKS and is thereby captured to the plates. The amount of biotinylated resp. autoparsylated TNKS is detected with a luminescence substrate for HRP. The level of the luminescence signal correlats directly with the amount of autoparsylated TNKS and therefore with activity of TNKS.
The acitivity ELISA is performed in 384 well Glutathione coated microtiter plates (Express capture Glutathione coated plate, Biocat, Heidelberg, Germany). The plates are pre-equilibrated with PBS. Then the plates are incubated with 50 μl 20 ng/well GST-tagged Tnks-1 (1023-1327 aa, prepared in-house), respectively GST-tagged Tnks-2 (873-1166 aa, prepared in-house) in assay buffer (50 mM HEPES, 4 mM Mg-chloride, 0.05% Pluronic F-68, 2 mM DTT, pH 7.7) overnight at 4° C. The plates are washed 3 times with PBS-Tween-20. The wells are blocked by incubation at room temperature for 20 minutes with 50 μl blocking buffer (PBS, 0.05% Tween-20, 0.5% BSA). Afterwards the plates are washed 3 times with PBS-Tween-20. The enzymatic reaction is performed in 50 μl reaction solution (50 mM HEPES, 4 mM Mg-chloride, 0.05% Pluronic F-68, 1.4 mM DTT, 0.5% DMSO, pH 7.7) with10 μM bio-NAD (Biolog, Life science Inst., Bremen, Germany) as co-substrate in the absence or presence of the test compound (10 dilution concentrations) for 1 hour at 30° C. The reaction is stopped by 3 times washing with PBS-Tween-20. For the detection 50 μl of 20 ng/μl Streptavidin, HRP conjugate (MoBiTec, Göttingen, Germany) in PBS/0.05% Tween-20/0.01% BSA are added and the plates are incubated for 30 minutes at room temperature. After three times washing with PBS-Tween-20 50 μl of SuperSignal ELISA Femto Maximum sensitivity substrate solution (ThermoFisherScientific (Pierce), Bonn, Germany) are added. Following a 1 minute incubation at room temperature luminescence signals are measured with an Envision multimode reader (Perkin Elmer LAS Germany GmbH) at 700 nm. The full value used is the inhibitor-free reaction. The pharmacological zero value used is XAV-939 (Tocris) in a final concentration of 5 μM. The inhibitory values (IC50) are determined using either the program Symyx Assay Explorer® or Condosseo® from GeneData.

T2 sequence (O95271 1023-1327): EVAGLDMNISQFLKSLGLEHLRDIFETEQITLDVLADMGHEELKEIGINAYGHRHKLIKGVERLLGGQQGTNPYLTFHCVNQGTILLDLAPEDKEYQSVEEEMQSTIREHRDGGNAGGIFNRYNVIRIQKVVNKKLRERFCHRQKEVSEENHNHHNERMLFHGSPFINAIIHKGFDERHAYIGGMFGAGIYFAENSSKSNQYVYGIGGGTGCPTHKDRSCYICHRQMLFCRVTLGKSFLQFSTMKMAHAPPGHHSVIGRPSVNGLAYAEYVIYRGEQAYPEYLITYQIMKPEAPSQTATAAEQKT
T1 sequence (Q9H2K2 873-1166): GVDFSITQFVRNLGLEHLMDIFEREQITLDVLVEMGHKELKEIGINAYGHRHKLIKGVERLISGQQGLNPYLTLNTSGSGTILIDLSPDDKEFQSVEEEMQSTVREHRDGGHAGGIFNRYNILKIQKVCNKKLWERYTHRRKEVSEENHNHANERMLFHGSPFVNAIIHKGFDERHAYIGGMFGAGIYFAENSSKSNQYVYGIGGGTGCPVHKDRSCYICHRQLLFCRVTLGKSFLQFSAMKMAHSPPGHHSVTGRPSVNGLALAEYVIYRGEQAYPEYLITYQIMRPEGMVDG

As a reminder, the IC50 is the concentration that gives 50% inhibition. Consider `Cc1ccc(-c2cc3c(F)cccc3c(=O)[nH]2)cc1` [Compound A12, 5-fluoro-3-p-tolyl-2H-isoquinolin-1-one], for which the EC50 in the experiment with tankyrase 1/2 was in the range of 300 to 3000 nM. The figures for the IC50 at Tankyrase-2 and against TNKS1 were 300 to 3000 nM and under 300 nM, respectively.
